Measured values: ChEMBL document CHEMBL4346754, “Further exploration of an N-aryl phenoxyethoxy pyridinone-based series of mGlu3 NAMs: Challenging SAR, enantiospecific activity and in vivo efficacy” (Bioorg Med Chem Lett, 2019)
Active and inactive are the calls of the source. No cut-off for these calls is given here.

Columns and labels:
[1] = biological target: T1, Metabotropic glutamate receptor 3 (Rattus norvegicus, UniProt P31422); test: Negative allosteric modulation of rat mGlu3R expressed in HEK cells harboring GIRK assessed as reduction in glutamate-induced thallium flux; assay type: cell-based
[2] = biological target: Metabotropic glutamate receptor 3 (Rattus norvegicus) (UniProt P31422); test: Negative allosteric modulation of rat mGlu3R expressed in HEK293 cells co-expressing Galpha15 assessed as decrease in glutamate-induced calcium mobilization relative to glutamate; assay type: functional, cell-based; set-up: concentration or dose not given beside the values
[3] = Fraction unbound in rat plasma; assay type: ADME, cell-free
[4] = Fraction unbound in rat brain homogenate; assay type: ADME, tissue-based
[5] = Permeability coefficient, Kp in rat brain; assay type: ADME, tissue-based
[6] = Unbound brain to plasma concentration ratio in rat; assay type: ADME, cell-free; settings: read-out: K(p,uu,brain)
[7] = biological target: T1, Metabotropic glutamate receptor 3; test: Negative allosteric modulation of rat mGlu3R expressed in HEK cells harboring GIRK assessed as reduction in glutamate-induced thallium flux preincubated for 5 mins followed by glutamate addition and measured after 2 mins by BTC-AM-dye based fluorescence assay; assay type: cell-based
[8] = Half life in iv dosed rat; assay type: ADME, organism-based; settings: in vivo
[9] = MRT in iv dosed rat; assay type: ADME, organism-based; settings: in vivo
[10] = Volume of distribution at steady state in iv dosed rat; assay type: ADME, organism-based; settings: in vivo, read-out: Vdss
Mus musculus [11] = test: Antidepressant activity in ip dosed C57BL6/J mouse as […] in immobility time by tail suspension test; assay type: functional; settings: read-out: MED
[12] = Plasma clearance in iv dosed rat; assay type: ADME, organism-based
Mus musculus [13] = test: Anti-anxiety activity in C57BL/6J mouse assessed as increase in total number of open arm entries at 15 mg/kg, ip treated for 15 mins by elevated zero maze assay; assay type: functional, organism-based
Mus musculus [14] = test: Anti-anxiety activity in C57BL/6J mouse assessed as increase in total time spent in open arms at 15 mg/kg, ip treated for 15 mins by elevated zero maze assay; assay type: functional, organism-based
Mus musculus [15] = test: Anti-anxiety activity in C57BL/6J mouse assessed as reduction in number of marbles buried at 15 mg/kg, ip treated for 15 mins by marble burying assay; assay type: functional, organism-based
Mus musculus [16] = test: Antidepressant activity in ip dosed C57BL6/J mouse as total time of immobile by tail suspension test relative to control; assay type: functional, organism-based
Mus musculus [17] = test: Anti-anxiety activity in C57BL/6J mouse assessed as increase in total time spent in open arms at 10 mg/kg, ip treated for 15 mins by elevated zero maze assay; assay type: functional, organism-based
Mus musculus [18] = test: Anti-anxiety activity in C57BL/6J mouse assessed as increase in total number of open arm entries at 10 mg/kg, ip treated for 15 mins by elevated zero maze assay; assay type: functional, organism-based
Mus musculus [19] = test: Anti-anxiety activity in C57BL/6J mouse assessed as reduction in number of marbles buried at 10 mg/kg, ip treated for 15 mins by marble burying assay; assay type: functional, organism-based
[20] = Brain to plasma permeability coefficient, Kp in mouse at 10 mg/kg, ip; assay type: ADME, organism-based
[21] = Drug level in mouse plasma at 10 mg/kg, ip; assay type: ADME, organism-based; settings: in vivo
[22] = Drug level in mouse brain at 10 mg/kg, ip; assay type: ADME, organism-based; settings: in vivo, read-out: Ct

T1 sequence (P31422 whole entry): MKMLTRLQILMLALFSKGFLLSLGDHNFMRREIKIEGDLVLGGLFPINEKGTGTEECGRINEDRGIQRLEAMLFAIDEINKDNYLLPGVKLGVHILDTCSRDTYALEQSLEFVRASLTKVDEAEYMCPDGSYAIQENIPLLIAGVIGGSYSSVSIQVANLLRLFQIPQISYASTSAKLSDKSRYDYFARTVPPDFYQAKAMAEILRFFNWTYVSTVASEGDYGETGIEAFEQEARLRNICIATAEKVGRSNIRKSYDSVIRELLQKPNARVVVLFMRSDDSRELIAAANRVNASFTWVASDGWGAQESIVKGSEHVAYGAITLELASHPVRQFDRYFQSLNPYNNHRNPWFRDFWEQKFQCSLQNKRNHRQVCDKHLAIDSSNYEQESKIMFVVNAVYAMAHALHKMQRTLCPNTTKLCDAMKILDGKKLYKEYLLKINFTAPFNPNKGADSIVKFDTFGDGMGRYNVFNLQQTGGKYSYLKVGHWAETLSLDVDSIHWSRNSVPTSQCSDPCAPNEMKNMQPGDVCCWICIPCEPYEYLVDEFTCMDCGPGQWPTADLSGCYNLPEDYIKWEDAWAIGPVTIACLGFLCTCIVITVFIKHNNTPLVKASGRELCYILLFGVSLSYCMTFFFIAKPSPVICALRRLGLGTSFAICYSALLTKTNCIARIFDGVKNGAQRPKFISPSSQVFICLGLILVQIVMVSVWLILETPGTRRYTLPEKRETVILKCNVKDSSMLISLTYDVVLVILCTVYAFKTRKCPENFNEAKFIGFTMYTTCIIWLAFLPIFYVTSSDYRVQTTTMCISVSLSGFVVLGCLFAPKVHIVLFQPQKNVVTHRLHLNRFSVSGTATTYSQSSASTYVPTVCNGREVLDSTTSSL
Sequence of Metabotropic glutamate receptor 3 (Rattus norvegicus) (P31422 23-879 limits assumed): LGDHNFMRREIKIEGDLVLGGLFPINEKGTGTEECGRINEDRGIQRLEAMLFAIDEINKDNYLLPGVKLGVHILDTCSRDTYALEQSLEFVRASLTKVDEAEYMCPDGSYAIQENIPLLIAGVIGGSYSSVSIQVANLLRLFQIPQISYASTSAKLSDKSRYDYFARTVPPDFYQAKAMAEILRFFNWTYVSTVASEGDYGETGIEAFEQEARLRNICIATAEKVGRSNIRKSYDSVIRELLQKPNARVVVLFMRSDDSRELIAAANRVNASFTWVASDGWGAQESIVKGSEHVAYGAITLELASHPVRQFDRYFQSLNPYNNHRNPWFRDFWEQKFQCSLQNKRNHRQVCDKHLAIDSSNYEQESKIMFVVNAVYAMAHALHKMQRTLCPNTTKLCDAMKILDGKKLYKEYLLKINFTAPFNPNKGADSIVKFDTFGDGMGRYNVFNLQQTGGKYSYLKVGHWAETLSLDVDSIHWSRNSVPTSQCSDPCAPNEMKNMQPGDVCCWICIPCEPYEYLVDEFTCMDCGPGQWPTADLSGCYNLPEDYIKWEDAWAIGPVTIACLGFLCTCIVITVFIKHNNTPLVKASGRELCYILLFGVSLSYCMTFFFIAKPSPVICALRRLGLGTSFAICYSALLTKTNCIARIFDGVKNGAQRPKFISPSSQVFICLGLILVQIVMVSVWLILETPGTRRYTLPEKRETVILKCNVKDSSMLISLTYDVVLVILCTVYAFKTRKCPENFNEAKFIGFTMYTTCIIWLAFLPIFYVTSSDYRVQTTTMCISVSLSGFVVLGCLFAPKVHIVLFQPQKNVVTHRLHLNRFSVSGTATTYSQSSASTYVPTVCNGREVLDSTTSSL

IC50 [1] [µM]	Activity [2] [%]	Compound	also measured
0.52	-11	C[C@H](COc1ccccc1)Oc1ccn(-c2cccc(Cl)c2)c(=O)c1	fraction unbound [3]: 0.045; fraction unbound [4]: 0.014; Kp [5]: 1.42; Kp uu [6]: 0.44
> 10	14	Cc1cccc(-n2ccc(OCC(Oc3ccccc3)c3ccccc3)cc2=O)c1 (configuration not stated)	
> 10	19	COc1ccc(-n2ccc(O[C@H](C)COc3ccccc3)cc2=O)cc1	
	-7.3	Cc1cccc(-n2ccc(OCC(C)COc3ccccc3)cc2=O)c1 (single isomer, unassigned; form 2) [listing 1 of 2 here]	
3	-2.2	C[C@H](COc1ccccc1)Oc1ccn(-c2ccc(F)cc2)c(=O)c1	
> 10	4.7	Cc1cccc(-n2ccc(OC[C@@H](C)Oc3ccccc3)cc2=O)c1	
1.3		Cc1cccc(-n2ccc(OCC(C)COc3ccccc3)cc2=O)c1 (single isomer, unassigned; form 2) [listing 2 of 2 here]	
	-5.7	C[C@@H](COc1ccn(-c2ccc(F)cc2)c(=O)c1)Oc1ccccc1	IC50 [7]: 1.28 to 1.3 µM; half-life [8]: 0.39 h; MRT [9]: 0.448 h; Vd [10]: 2.05 L/kg; minimal effective dose (Mus musculus [11]): 10 mg/kg; clearance [12]: 76.3 mL/min/kg
> 10	1.3	C[C@H](COc1ccn(-c2ccc(F)cc2)c(=O)c1)Oc1ccccc1	
3.2		Cc1cccc(-n2ccc(OCC(C)COc3ccccc3)cc2=O)c1 (racemic) [listing 1 of 2 here]	
1.4	-4.4	CC(COc1ccccc1)COc1ccn(-c2cccc(Cl)c2)c(=O)c1 (single isomer, unassigned)	
		CN(C)CCCC1(c2ccc(F)cc2)OCc2cc(C#N)ccc21 (configuration not stated)	Activity (Mus musculus [13]): Active; Activity (Mus musculus [14]): Active; Activity (Mus musculus [15]): Active; Activity (Mus musculus [16]): inactive
7.7	-1.7	O=c1cc(OCC2CCc3ccccc3O2)ccn1-c1ccc(F)cc1 (racemic)	
3.2	6.6	CC(COc1ccccc1)COc1ccn(-c2ccc(F)cc2)c(=O)c1 (racemic)	
3.1		Cc1cccc(-n2ccc(OCC(C)COc3ccccc3)cc2=O)c1 (single isomer, unassigned; form 1) [listing 1 of 2 here]	
	-6.6	Cc1cccc(-n2ccc(OCC(C)COc3ccccc3)cc2=O)c1 (single isomer, unassigned; form 1) [listing 2 of 2 here]	
> 10	4.9	O=c1cc(OCC(Oc2ccccc2)c2ccccc2)ccn1-c1ccc(F)cc1 (configuration not stated)	
> 10	32	C[C@@H](COc1ccccc1)Oc1ccn(-c2ccc(F)cc2)c(=O)c1	
	4.6	Cc1cccc(-n2ccc(OCC(C)COc3ccccc3)cc2=O)c1 (racemic) [listing 2 of 2 here]	
4.1	-0.77	Cc1cccc(-n2ccc(OCC3CCc4ccccc4O3)cc2=O)c1 (racemic)	
1.5	-4.3	Cc1cccc(-n2ccc(O[C@H](C)COc3ccccc3)cc2=O)c1	Activity (Mus musculus [17]): Active; Activity (Mus musculus [18]): Active; Activity (Mus musculus [19]): Active; fraction unbound [3]: 0.055; fraction unbound [4]: 0.018; Kp [5]: 1.6; Kp uu [6]: 0.53; half-life [8]: 2 h; MRT [9]: 2.05 h; Vd [10]: 3.82 L/kg; minimal effective dose (Mus musculus [11]): 10 mg/kg; Kp [20]: 1.42; concentration [21]: 272 nM; concentration [22]: 386 nM; clearance [12]: 31 mL/min/kg; Activity (Mus musculus [16]): inactive
1.3	-7.4	Cc1cccc(-n2ccc(OC[C@H](C)Oc3ccccc3)cc2=O)c1	
2.7	-7.9	C[C@H](COc1ccccc1)Oc1ccn(-c2ccc(Cl)cc2)c(=O)c1	
0.92	36	CC(COc1ccccc1)COc1ccn(-c2ccc(Cl)cc2)c(=O)c1 (single isomer, unassigned)	fraction unbound [3]: 0.01; fraction unbound [4]: 0.008; Kp [5]: 1.6
